Results on 16 compounds are retold here after patent US12378216B2, “Heteroaryl(heterocyclyl)methanol compounds useful in the treatment of hyperglycaemia” (ATROGI AB, priority 2019, dated 2025).

Counter-ions that a name gives are not always drawn.

For one assay, the system named is L6-myotubes. Nature of the assay: Glucose uptake in differentiated L6-myotubes (3H-2-deoxy-glucose). In kind it is cell-based. The note with it: for Biological example 3: Table 2, the assay of Biological Example 1 (glucose uptake, L6-myotubes, agonist 1×10^−5, relative to isoproterenol); for Biological example 1 (glucose uptake, activity compared to that of isoproterenol): L6-myotubes, agonist final concentration 1×10^−5, relative to isoproterenol, Table 1. The procedure: (§1) L6-myoblasts were grown in Dulbecco's Modified Eagle's Medium (DMEM) containing 4.5 g/I glucose supplemented with 10% fetal bovine serum, 2 mM L-Glutamine, 50 U/ml penicillin, 50 μg/ml streptomycin and 10 mM HEPES. Cells were plated at 1×10^5 cells per ml in 24-well plates. After reaching 90% confluence the cells were grown in medium containing 2% FBS for 7 days where upon cells differentiated into myotubes.
Differentiated L6-myotubes were serum-starved overnight in medium containing 0.5% fatty-acid free BSA and stimulated with agonist, final concentration 1×10^−5. After 1 h 40 min cells were washed with warm, glucose free medium or PBS and another portion of agonist was added to glucose free medium. After 20 min the cells were exposed to 50 nM ^3H-2-deoxy-glucose for another 10 min before washed in ice cold glucose free medium or PBS and lysed in 0.2 M NaOH for 1 h in 60° C.

Assay [1] relates to Intracellular cAMP levels. Nature of the assay: Measurement of intracellular cAMP levels in differentiated L6 cells (alpha screen cAMP kit). It counts as cell-based. The note with it: for Biological example 4: Table 2, the assay of Biological Example 2 (intracellular cAMP, agonist 1×10-^5, relative to isoproterenol); for Biological example 2 (intracellular cAMP levels, activity compared to that of isoproterenol): differentiated cells, agonist final concentration 1×10-^5, 15 min, relative to isoproterenol, Table 1. The procedure:
as §1
Differentiated cells were serum-starved overnight and stimulated with agonist, final concentration 1×10-^5, for 15 min in stimulation buffer (HBSS supplemented with 1% BSA, 5 mM HEPES and 1 mM IBMX, pH 7.4) The medium was then aspirated and to end the reaction 100 μL of 95% EtOH was added to each well of a 24-well plate and cells were kept in −20° C. over night. The EtOH was let to evaporate and 500 μL of lysis buffer (1% BSA, 5 mM HEPES and 0.3% Tween-20, pH 7.4) was added to each well before put in −80° C. for 30 min and then kept in −20° C. Intracellular cAMP levels were detected using an alpha screen cAMP kit (6760635D from Perkin Elmer). The activity for each compound is compared to that of isoproterenol.
A general note: Changes in cAMP serve as a functional read-out for many G protein-coupled receptors.

Take `CCC[C@H]1CCCC[C@@H]([C@@H](O)c2cncc(F)c2)N1` [Example 16]: the “Biological example 3” value with L6-myotubes was “+ (between 50 and 25%)”.

`CC1(C)C[C@H]([C@H](O)c2cncc(F)c2)N1` [Example 9, (R)-((R)-4,4-Dimethylazetidin-2-yl)(5-fluoropyridine-3-yl)methanol dihydrochloride]: the “Biological example 4” value in assay [1] is given as “− (less than 25%)”. Further, the “Biological example 3” value with L6-myotubes is “+++ (more than 75% of that of isoproterenol)”.

With `CCC[C@@H]1CC[C@H]([C@H](O)c2cncc(F)c2)N1.O=C(O)/C=C\C(=O)O` [Example 3, (R)-(5-Fluoropyridin-3-yl)((2R,5R)-5-propylpyrrolidin-2-yl)methanol maleate], the “Biological example 2 (intracellular cAMP levels, activity compared to that of isoproterenol)” value in assay [1] was “− (less than 25%)”. Moreover, the “Biological example 1 (glucose uptake, activity compared to that of isoproterenol)” value in the assay with L6-myotubes was “+++ (more than 75% of that of isoproterenol)”.

Turning to `CCC[C@@H]1CC[C@H]([C@@H](O)c2cncc(F)c2)N1.O=C(O)/C=C\C(=O)O` [Example 4, (S)-(5-Fluoropyridin-3-yl)((2R,5R)-5-propylpyrrolidin-2-yl)methanol maleate], the “Biological example 2 (intracellular cAMP levels, activity compared to that of isoproterenol)” value in assay [1] is on record as “− (less than 25%)”. For the same compound, in the assay with L6-myotubes, the “Biological example 1 (glucose uptake, activity compared to that of isoproterenol)” value was “++ (between 75 and 50%)”.

In the case of `CC1(C)CC[C@H]([C@@H](O)c2cncc(O)c2)N1` [Example 8, 5-((S)-((R)-5,5-dimethylpyrrolidin-2-yl)(hydroxy)methyl)pyridin-3-ol], the “Biological example 2 (intracellular cAMP levels, activity compared to that of isoproterenol)” value in assay [1] was “− (less than 25%)”. Besides, the “Biological example 1 (glucose uptake, activity compared to that of isoproterenol)” value with L6-myotubes was “+ (between 50 and 25%)”.

With `CCC[C@H]1CCC[C@H]([C@@H](O)c2cncc(F)c2)N1` [Example 2, (S)-(5-Fluoropyridin-3-yl)((2R,6S)-6-propylpiperidin-2-yl)methanol], in assay [1], the “Biological example 2 (intracellular cAMP levels, activity compared to that of isoproterenol)” value was “− (less than 25%)”. The “Biological example 1 (glucose uptake, activity compared to that of isoproterenol)” value in the assay with L6-myotubes is “− (less than 25%)”.

For the compound `CC1(C)C[C@@H]([C@@H](O)c2cncc(F)c2)N1` [Example 11, (S)-((S)-4,4-Dimethylazetidin-2-yl) (5-fluoropyridine-3-yl) methanol dihydrochloride], the “Biological example 4” value in assay [1] is reported as “− (less than 25%)”. Besides, in the assay with L6-myotubes, the “Biological example 3” value is “+ (between 50 and 25%)”.

Regarding `CC1(C)C[C@H]([C@@H](O)c2cncc(F)c2)N1` [Example 12, (S)-((R)-4,4-Dimethylazetidin-2-yl)(5-fluoropyridin-3-yl)methanol dihydrochloride], the “Biological example 4” value in assay [1] is reported as “− (less than 25%)”. Further, the “Biological example 3” value in the assay with L6-myotubes was “+ (between 50 and 25%)”.

`CC1(C)CC[C@H]([C@@H](O)c2cncc(F)c2)N1` [Example 6, (S)-((R)-5,5-Dimethylpyrrolidin-2-yl) (5-fluoropyridin-3-yl)methanol]: the “Biological example 2 (intracellular cAMP levels, activity compared to that of isoproterenol)” value in assay [1] is “− (less than 25%)”. Besides, the “Biological example 1 (glucose uptake, activity compared to that of isoproterenol)” value in the assay on L6-myotubes is “− (less than 25%)”.

`CCC[C@@H]1CCCC[C@H]([C@H](O)c2cncc(F)c2)N1` [Example 13, (R)-(5-Fluoropyridin-3-yl)((2R,7R)-7-propylazepan-2-yl)methanol]: the “Biological example 4” value in assay [1] is listed as “− (less than 25%)”. The “Biological example 3” value in the assay on L6-myotubes is listed as “− (less than 25%)”.

On to `CCC[C@H]1CCCC[C@@H]([C@H](O)c2cncc(F)c2)N1` [Example 15, (R)-(5-Fluoropyridin-3-yl)(S,7S)-7-propylazepan-2-yl)methanol dihydrochloride], for which, in the assay with L6-myotubes, the “Biological example 3” value was “++ (between 75 and 50%)”.

Turning to `CCC[C@H]1CCC[C@H]([C@H](O)c2cncc(F)c2)N1` [Example 1, (R)-(5-Fluoropyridin-3-yl)((2R,6S)-6-propylpiperidin-2-yl)methanol dihydrochloride], in assay [1], the “Biological example 2 (intracellular cAMP levels, activity compared to that of isoproterenol)” value is recorded as “− (less than 25%)”. Moreover, in the assay with L6-myotubes, the “Biological example 1 (glucose uptake, activity compared to that of isoproterenol)” value was “− (less than 25%)”.

With `CC1(C)C[C@@H]([C@H](O)c2cncc(F)c2)N1` [Example 10, (R)-((S)-4,4-Dimethylazetidin-2-yl)(5-fluoropyridine-3-yl)methanol dihydrochloride], the “Biological example 4” value in assay [1] was “− (less than 25%)”. The “Biological example 3” value in the assay on L6-myotubes is “+ (between 50 and 25%)”.

On to `CCC[C@@H]1CCCC[C@H]([C@@H](O)c2cncc(F)c2)N1` [Example 14, (S)-(5-Fluoropyridin-3-yl)((2R,7R)-7-propylazepan-2-yl)methanol], for which, in assay [1], the “Biological example 4” value is “− (less than 25%)”. In addition, the “Biological example 3” value with L6-myotubes is given as “− (less than 25%)”.

On to `CC1(C)CC[C@H]([C@H](O)c2cncc(F)c2)N1` [Example 5, (R)-((R)-5,5-Dimethylpyrrolidin-2-yl)(5-fluoropyridin-3-yl)methanol], for which the “Biological example 2 (intracellular cAMP levels, activity compared to that of isoproterenol)” value in assay [1] is “− (less than 25%)”. Moreover, in the assay on L6-myotubes, the “Biological example 1 (glucose uptake, activity compared to that of isoproterenol)” value is on record as “+++ (more than 75% of that of isoproterenol)”.

In the case of `CC1(C)CC[C@H]([C@H](O)c2cncc(O)c2)N1` [Example 7], the “Biological example 2 (intracellular cAMP levels, activity compared to that of isoproterenol)” value in assay [1] was “− (less than 25%)”. The “Biological example 1 (glucose uptake, activity compared to that of isoproterenol)” value in the assay with L6-myotubes is “++ (between 75 and 50%)”.
